The text below walks through data of patent US20170105981A1, “METHODS FOR STABILIZING HYPOXIA INDUCIBLE FACTOR-2 ALPHA AS A METHOD FOR TREATING CANCER” (The Ohio State Innovation Foundation, priority 2011, published 2017).

The subject of one assay is HIF-2α. The experiment in a line: Immunoblot for HIF-2α in murine bone marrow-derived macrophages. Type of assay: cell-based. As to conditions: murine bone marrow-derived macrophages treated 18 hours; p=0.001; FIG. 11A. Here is the method: To generate bone marrow-derived macrophages (BDMs), femoral bone marrow was isolated and progenitor cells were plated in RPMI-1640 supplemented with 10% FBS, 1% PSA, 10 μg/mL of polymyxin B, and 20 ng/mL of recombinant murine M-CSF. Cells were cultured for 5 days with the addition of fresh M-CSF every other day. Differentiated BDM were serum-starved for 2 hours and then treated with 100 ng/mL of murine GM-CSF and/or 25 μM the disclosed HIF-2α stabilizer in RPMI-1640 containing 1% FBS and 10 μg/mL polymixin B. Culture supernatants were collected after 72 hours and assayed for VEGF and sVEGFR-1 content by ELISA (R&D Systems).
In order to confirm the selective upregulation of HIF-2α by the disclosed HIF-2α stabilizer, murine bone marrow-derived macrophages were treated with the disclosed HIF-2α stabilizer for 18 hours, and cells were then lysed and immunoblotted for HIF-1α and HIF-2α.

The test system of assay [1] is phosphoglycerate kinase (PGK) mRNA. The experiment in a line: PGK mRNA expression (qPCR) in HIF-1α−/− fibroblasts. The settings on record: hypoxic conditions (1% O2), 1, 10 and 100 μM, vs. hypoxia control, FIG. 2B. It is filed as cell-based, murine. Here is the method: Total RNA was isolated from tissues and cells by using TRIzol™ Reagent (Invitrogen) and the RNeasy kit (Qiagen), respectively. 1 μg RNA was used for reverse transcription using SuperScript II First-Strand Synthersis System (Invitrogen). cDNA's were amplified in a SYR Green or TaqMan Universal Master Mix (Applied Biosystems). Quantitative PCR (qPCR) was performed on ABI Prism 7700 sequence detection system. PCR conditions are: 10 min at 95° C., 40 cycles of 15 seconds at 95° C. and 1 minute at 60° C. The relative amount of mRNA was calculated after normalization to β-actin.
Cells were cultured in DMEM (#11965-092, Invitrogen) supplemented with 10% fetal bovine serum (Invitrogen), 100 U/mL penicillin and […] streptomycin. For glucose deprivation, DMEM without glucose (#11966-025, Invitrogen) was used.
Mouse embryonic fibroblasts (MEFs) were isolated from E12.5 embryos and immortalized by stable transfection with SV40 large T antigen.
For orientation: Quantitative PCR measures a nucleic acid by following its amplification.

Assay [2] has as its system tumor growth in HIF-2αflox/flox/LysMcre and LysMcre mice. Kind of assay: Tumor growth in mice with myeloid-specific deletion of HIF-2α vs LysMcre control mice. It is filed as in vivo. As to conditions: FIG. 15. From the text: HIF-2α^flox/flox mice (originally developed by Dr. Celeste Simon, University of Pennsylvania) and LysMcre recombinase mice (originally developed by Irmgard Foerster, University of Duesseldorf) (both purchased from The Jackson Laboratory, Bar Harbor, Me.) were crossed to generate mice homozygous for both LysMcre and the floxed HIF-2α allele. LysMcre recombinase mice, which express no floxed alleles, were used as controls. Deletion of HIF-2α in HIF-2α^flox/flox/LysMcre macrophages, but not the LysMcre control macrophages, was confirmed at the transcript level by real-time PCR.
The disclosed HIF-2α stabilizer is not targeted specifically to macrophages, and will stabilize HIF-2α in all tissues, not only the tumor-associated macrophages. In order to determine the role of macrophages in the anti-tumor response to the disclosed HIF-2α stabilizer, mice with a myeloid-specific deletion of HIF-2α (HIF-2α^flox/flox/LysMcre mice) were utilized.

For `O=C(O)CNC(=O)c1ncc(-c2cccc(F)c2)cc1O` [disclosed HIF-2α stabilizer, {[5-(3-Fluorophenyl)-3-hydroxypyridine-2-carbonyl]amino} acetic acid], in the assay on HIF-2α, the HIF-2α protein result is “increase”. Besides, the “PGK mRNA (relative amount)” value in assay [1] is reported as “dramatic reduction”. For the same molecule, the tumor growth entry in assay [2] (LysMcre control mice) is “inhibited tumor growth”; in assay [2] (mice with HIF-2α-deficient macrophages, magnitude much less than in control mice), “reduced tumor growth”.
